The text below walks through data of PubChem BioAssay (NCI).

SMILES strings stand for the structures.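 Assay format: 96-well plates, 48-hour exposure. GI50 is the concentration that inhibits growth by half. TGI denotes the concentration required for complete inhibition of growth.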

One assay relates to SW-620 colon. The assay is described as follows: DTP human tumour cell line panel, 48 h.
The term GI50 denotes the concentration at which growth is held to half of that of the control. As usually defined, the TGI is the concentration giving total growth inhibition. Read a low TGI as greater sensitivity of the cells. Turning to `CC1=C2[C@@H](CC1)[C@]1(C)O[C@@](c3ccccc3)(C[C@H]1OC(=O)CO)[C@H]2OC(=O)/C=C/c1ccccc1`, the GI50 is 21.9 µM and the TGI is 60 µM.

With `CCCN(CCS(C)(=O)=O)Cc1ccc(-c2ccc3ncnc(Nc4ccc(OCc5cccc(F)c5)c(Cl)c4)c3c2)o1`, the GI50 was > 25 µM and the TGI is > 25 µM.

Turning to `CCc1ccc2c(c1)N(CCO)C1=C(C(=O)OC1)C2c1cccc(Br)c1` (centres undefined), the GI50 was 0.35 µM and the TGI was 18.7 µM.

For `CO/N=C(\COc1ccc2c(c1)[nH]c1ccccc12)c1ccc(F)cc1`, the GI50 is > 100 µM and the TGI is > 100 µM.

Regarding `COc1ccc(-c2nc(Nc3cc(C)[nH]n3)c3ccccc3n2)cc1`, the GI50 was 2.14 µM and the TGI was > 100 µM.

`O=c1[nH]c(=O)n(C2CC(O)C(COP(=O)(OCc3ccc([N+](=O)[O-])o3)N(CCCCCl)CC(O)CO)O2)cc1F` (centres undefined): the GI50 was 0.0447 µM and the TGI is > 100 µM.

In the case of `O=C1OC(=O)C(=C\c2ccc3c(c2)OCO3)/C1=C/c1ccc2c(c1)OCO2`, the TGI is > 100 µM.

As to `CC(C)NCCCn1c(Sc2cc3c(cc2I)OCO3)nc2c(N)ncnc21`, the GI50 is 0.0592 µM and the TGI is > 100 µM.

`O=C(/C=C\c1cccc([N+](=O)[O-])c1)/C=C/c1cccc([N+](=O)[O-])c1`: the GI50 is 1.9 µM and the TGI was determined as 4.53 µM.

Regarding `CN1C(=O)N(C)C2C1NN=c1s/c(=C\c3ccc(C(F)(F)F)cc3)c(=O)n12` (centres undefined), the GI50 was 0.659 µM and the TGI was > 100 µM.

Regarding `N#Cc1c(N2CCOCC2)nc(=S)[nH]c1-c1ccco1`, the GI50 is 23.5 µM and the TGI was > 100 µM.

With `C[C@@H]1CN(Cc2ccc(F)cc2)[C@@H](C)CN1C(=O)c1cc2c(C(=O)C(=O)N(C)C)cn(C)c2cc1Cl`, the GI50 was 24 µM and the TGI is > 84.9 µM.

On to `COc1ccccc1-c1cc(=O)c2cc(C)cnc2[nH]1`, for which the TGI is > 100 µM.

Turning to `O=[N+]([O-])c1ccc(C=Cc2ccccc2)cc1.[C-]#[O+].[C-]#[O+].[C-]#[O+].[Cr]`, the GI50 was 79.5 µM and the TGI is > 100 µM.

For `OCC1OC(n2cnc3c(N/N=C\c4ccccn4)ncnc32)C(O)C1O` (centres undefined), the GI50 is 0.422 µM and the TGI is > 100 µM.

`NNC(=O)CS(=O)(=O)Nc1ncccn1`: the TGI is > 100 µM.

On to `COc1cc2c(cc1OCCCn1c(-c3ccccn3)nc3ccccc31)N=C[C@@H]1CCCN1C2=O`, for which the GI50 is 2.47 µM and the TGI was 8.33 µM.

As to `c1cnn2ncc(-c3ccnc(NCCCN4CCOCC4)n3)c2c1`, the GI50 was 6.66 µM and the concentration for total growth inhibition (TGI) was > 25 µM.

In the case of `O=C(Nc1ccc(OCc2nnc(-c3ccc(Cl)cc3)o2)c(F)c1)Nc1ccc(Cl)c(C(F)(F)F)c1`, the GI50 is 2.9 µM and the TGI stood at 11 µM.

In a further assay the test system is UACC-62 melanoma. The assay is described as follows: DTP human tumour cell line panel, 48 h.
Consider `CC1=C2[C@@H](CC1)[C@]1(C)O[C@@](c3ccccc3)(C[C@H]1OC(=O)CO)[C@H]2OC(=O)/C=C/c1ccccc1`, for which the GI50 is 15.3 µM and the TGI was determined as 36 µM.

Regarding `CCCN(CCS(C)(=O)=O)Cc1ccc(-c2ccc3ncnc(Nc4ccc(OCc5cccc(F)c5)c(Cl)c4)c3c2)o1`, the GI50 is > 25 µM and the TGI is > 25 µM.

`CCc1ccc2c(c1)N(CCO)C1=C(C(=O)OC1)C2c1cccc(Br)c1` (centres undefined): the GI50 is 0.518 µM and the TGI was found to be 16.7 µM.

As for `CO/N=C(\COc1ccc2c(c1)[nH]c1ccccc12)c1ccc(F)cc1`, the GI50 was 95.9 µM and the TGI was > 100 µM.

As to `COc1ccc(-c2nc(Nc3cc(C)[nH]n3)c3ccccc3n2)cc1`, the GI50 was 2.37 µM and the TGI is > 100 µM.

For `O=c1[nH]c(=O)n(C2CC(O)C(COP(=O)(OCc3ccc([N+](=O)[O-])o3)N(CCCCCl)CC(O)CO)O2)cc1F` (centres undefined), the GI50 is 0.138 µM.

As for `O=C1OC(=O)C(=C\c2ccc3c(c2)OCO3)/C1=C/c1ccc2c(c1)OCO2`, the TGI was > 100 µM.

Take `CC(C)NCCCn1c(Sc2cc3c(cc2I)OCO3)nc2c(N)ncnc21`: the GI50 was 0.368 µM and the TGI was > 41 µM.

`O=C(/C=C\c1cccc([N+](=O)[O-])c1)/C=C/c1cccc([N+](=O)[O-])c1`: the GI50 was 14.8 µM and the TGI was > 100 µM.

Take `CN1C(=O)N(C)C2C1NN=c1s/c(=C\c3ccc(C(F)(F)F)cc3)c(=O)n12` (centres undefined): the GI50 is 0.662 µM and the TGI was > 100 µM.

As for `N#Cc1c(N2CCOCC2)nc(=S)[nH]c1-c1ccco1`, the GI50 was 2.91 µM and the TGI came out at 32.7 µM.

Take `C[C@@H]1CN(Cc2ccc(F)cc2)[C@@H](C)CN1C(=O)c1cc2c(C(=O)C(=O)N(C)C)cn(C)c2cc1Cl`: the GI50 was 5.86 µM and the TGI is 23.9 µM.

On to `COc1ccccc1-c1cc(=O)c2cc(C)cnc2[nH]1`, for which the TGI was > 100 µM.

For `O=[N+]([O-])c1ccc(C=Cc2ccccc2)cc1.[C-]#[O+].[C-]#[O+].[C-]#[O+].[Cr]`, the GI50 was 3.01 µM and the TGI amounted to 46.9 µM.

Regarding `OCC1OC(n2cnc3c(N/N=C\c4ccccn4)ncnc32)C(O)C1O` (centres undefined), the GI50 is 0.866 µM and the TGI worked out at 4.05 µM.

Take `NNC(=O)CS(=O)(=O)Nc1ncccn1`: the TGI was > 100 µM.

Turning to `COc1cc2c(cc1OCCCn1c(-c3ccccn3)nc3ccccc31)N=C[C@@H]1CCCN1C2=O`, the GI50 is 1.48 µM and the TGI came to 3.04 µM.

For `c1cnn2ncc(-c3ccnc(NCCCN4CCOCC4)n3)c2c1`, the GI50 was 5.86 µM and the TGI came to 18.4 µM.

On to `O=C(Nc1ccc(OCc2nnc(-c3ccc(Cl)cc3)o2)c(F)c1)Nc1ccc(Cl)c(C(F)(F)F)c1`, for which the GI50 is 1.54 µM and the TGI is 4.21 µM.

A further assay deals with TK-10 renal. As to the kind of experiment: DTP human tumour cell line panel, 48 h.
With `CC1=C2[C@@H](CC1)[C@]1(C)O[C@@](c3ccccc3)(C[C@H]1OC(=O)CO)[C@H]2OC(=O)/C=C/c1ccccc1`, the GI50 is 21.9 µM and the TGI was 49.3 µM.

For the molecule `CCCN(CCS(C)(=O)=O)Cc1ccc(-c2ccc3ncnc(Nc4ccc(OCc5cccc(F)c5)c(Cl)c4)c3c2)o1`, the GI50 is 0.175 µM and the TGI was > 25 µM.

Regarding `CCc1ccc2c(c1)N(CCO)C1=C(C(=O)OC1)C2c1cccc(Br)c1` (centres undefined), the GI50 was 1.81 µM and the TGI was 18.4 µM.

With `CO/N=C(\COc1ccc2c(c1)[nH]c1ccccc12)c1ccc(F)cc1`, the GI50 was 25.9 µM and the TGI is > 100 µM.

On to `COc1ccc(-c2nc(Nc3cc(C)[nH]n3)c3ccccc3n2)cc1`, for which the GI50 was 0.865 µM and the TGI was 8.11 µM.

On to `O=c1[nH]c(=O)n(C2CC(O)C(COP(=O)(OCc3ccc([N+](=O)[O-])o3)N(CCCCCl)CC(O)CO)O2)cc1F` (centres undefined), for which the GI50 was 0.326 µM and the TGI is > 87.7 µM.

For the molecule `O=C1OC(=O)C(=C\c2ccc3c(c2)OCO3)/C1=C/c1ccc2c(c1)OCO2`, the TGI is > 100 µM.

With `CC(C)NCCCn1c(Sc2cc3c(cc2I)OCO3)nc2c(N)ncnc21`, the GI50 is 0.161 µM and the TGI was > 100 µM.

In the case of `O=C(/C=C\c1cccc([N+](=O)[O-])c1)/C=C/c1cccc([N+](=O)[O-])c1`, the GI50 was 2.97 µM and the TGI is 8.7 µM.

Turning to `CN1C(=O)N(C)C2C1NN=c1s/c(=C\c3ccc(C(F)(F)F)cc3)c(=O)n12` (centres undefined), the GI50 is 4.06 µM and the TGI amounted to 75.9 µM.

On to `N#Cc1c(N2CCOCC2)nc(=S)[nH]c1-c1ccco1`, for which the GI50 is 5.35 µM and the TGI came to 39.7 µM.

Turning to `C[C@@H]1CN(Cc2ccc(F)cc2)[C@@H](C)CN1C(=O)c1cc2c(C(=O)C(=O)N(C)C)cn(C)c2cc1Cl`, the GI50 is 30.3 µM and the concentration for total growth inhibition (TGI) was > 89.7 µM.

For `COc1ccccc1-c1cc(=O)c2cc(C)cnc2[nH]1`, the TGI was > 100 µM.

For the molecule `O=[N+]([O-])c1ccc(C=Cc2ccccc2)cc1.[C-]#[O+].[C-]#[O+].[C-]#[O+].[Cr]`, the GI50 is 12 µM and the TGI is > 100 µM.

On to `OCC1OC(n2cnc3c(N/N=C\c4ccccn4)ncnc32)C(O)C1O` (centres undefined), for which the GI50 is 0.159 µM and the TGI was > 100 µM.

As to `NNC(=O)CS(=O)(=O)Nc1ncccn1`, the TGI is > 100 µM.

As to `COc1cc2c(cc1OCCCn1c(-c3ccccn3)nc3ccccc31)N=C[C@@H]1CCCN1C2=O`, the GI50 was 3.32 µM and the concentration for total growth inhibition (TGI) came out at 10.9 µM.

In the case of `c1cnn2ncc(-c3ccnc(NCCCN4CCOCC4)n3)c2c1`, the GI50 is 6.67 µM and the TGI was > 23.2 µM.

Consider `O=C(Nc1ccc(OCc2nnc(-c3ccc(Cl)cc3)o2)c(F)c1)Nc1ccc(Cl)c(C(F)(F)F)c1`, for which the GI50 is 3.72 µM and the TGI was 17 µM.

Another assay concerns UACC-257 melanoma. As to the kind of experiment: DTP human tumour cell line panel, 48 h.
Take `CC1=C2[C@@H](CC1)[C@]1(C)O[C@@](c3ccccc3)(C[C@H]1OC(=O)CO)[C@H]2OC(=O)/C=C/c1ccccc1`: the GI50 was 22.6 µM and the TGI stood at 49.9 µM.

In the case of `CCCN(CCS(C)(=O)=O)Cc1ccc(-c2ccc3ncnc(Nc4ccc(OCc5cccc(F)c5)c(Cl)c4)c3c2)o1`, the GI50 was > 25 µM and the TGI is > 25 µM.

Take `CCc1ccc2c(c1)N(CCO)C1=C(C(=O)OC1)C2c1cccc(Br)c1` (centres undefined): the GI50 was 0.623 µM and the TGI was found to be 19.6 µM.

Turning to `CO/N=C(\COc1ccc2c(c1)[nH]c1ccccc12)c1ccc(F)cc1`, the GI50 was 48.7 µM and the TGI is > 100 µM.

With `COc1ccc(-c2nc(Nc3cc(C)[nH]n3)c3ccccc3n2)cc1`, the GI50 was 13 µM and the TGI came out at 65.2 µM.

For `O=c1[nH]c(=O)n(C2CC(O)C(COP(=O)(OCc3ccc([N+](=O)[O-])o3)N(CCCCCl)CC(O)CO)O2)cc1F` (centres undefined), the GI50 was 0.0213 µM and the TGI worked out at 0.852 µM.

With `O=C1OC(=O)C(=C\c2ccc3c(c2)OCO3)/C1=C/c1ccc2c(c1)OCO2`, the TGI is > 100 µM.

For the molecule `CC(C)NCCCn1c(Sc2cc3c(cc2I)OCO3)nc2c(N)ncnc21`, the GI50 was 0.308 µM and the TGI came out at 13.5 µM.

As for `O=C(/C=C\c1cccc([N+](=O)[O-])c1)/C=C/c1cccc([N+](=O)[O-])c1`, the GI50 is 21.4 µM and the TGI is > 100 µM.

Regarding `CN1C(=O)N(C)C2C1NN=c1s/c(=C\c3ccc(C(F)(F)F)cc3)c(=O)n12` (centres undefined), the GI50 was 14.5 µM and the TGI is > 100 µM.

For the molecule `N#Cc1c(N2CCOCC2)nc(=S)[nH]c1-c1ccco1`, the GI50 was 22.4 µM and the concentration for total growth inhibition (TGI) was > 100 µM.

On to `C[C@@H]1CN(Cc2ccc(F)cc2)[C@@H](C)CN1C(=O)c1cc2c(C(=O)C(=O)N(C)C)cn(C)c2cc1Cl`, for which the GI50 is 15.7 µM and the TGI was 34.7 µM.

Consider `COc1ccccc1-c1cc(=O)c2cc(C)cnc2[nH]1`, for which the TGI was > 100 µM.

Take `O=[N+]([O-])c1ccc(C=Cc2ccccc2)cc1.[C-]#[O+].[C-]#[O+].[C-]#[O+].[Cr]`: the GI50 was 44.4 µM and the TGI was > 100 µM.

For `OCC1OC(n2cnc3c(N/N=C\c4ccccn4)ncnc32)C(O)C1O` (centres undefined), the GI50 is 1.24 µM and the TGI was 8.68 µM.

Regarding `NNC(=O)CS(=O)(=O)Nc1ncccn1`, the TGI is > 100 µM.

`COc1cc2c(cc1OCCCn1c(-c3ccccn3)nc3ccccc31)N=C[C@@H]1CCCN1C2=O`: the GI50 is 2.11 µM and the TGI was found to be 9.42 µM.

As for `c1cnn2ncc(-c3ccnc(NCCCN4CCOCC4)n3)c2c1`, the GI50 was 6.68 µM and the TGI was > 22.1 µM.

Take `O=C(Nc1ccc(OCc2nnc(-c3ccc(Cl)cc3)o2)c(F)c1)Nc1ccc(Cl)c(C(F)(F)F)c1`: the GI50 is 2.71 µM and the total growth inhibition concentration (TGI) came out at 11.1 µM.
